In patent publication US20040072848A1, “Methods of treating irritable bowel syndrome and functional dyspepsia” (priority 2003, published 2004):

System: Zymosan-sensitized rats
Assay: Rodent model of zymosan-induced hyperalgesia: visceromotor response to colorectal distention
Assay type: in vivo, Sprague-Dawley rats
Conditions: two doses (time 0 and 16 h), intracolonic zymosan, CRD 80 mm Hg, 20 s, 4 h after zymosan, expressed as percentage of control, baseline = 100%
Method: FIG. 1 is a graphical representation of the results of a study conducted in Zymosan-sensitized rats comparing the effect of (E)-4-(1,3-bis(cyclohexylmethyl)-1,2,3,6-tetrahydro-2,6-dioxo-9H-purin-8-yl)cinnamic acid nonaethylene glycol methyl ether ester ([…] and 25 mg/kg) versus vehicle. Results are reported as response to colorectal distention (CRD) (as a percent of control) with increasing dosage of 0, 12.5, and 25 mg/kg of compound (sensitized --▪--) as compared to baseline (--♦--).
Protocol for Evaluation of (E)-4-(1,3-bis(cyclohexylmethyl)-1,2,3,6-tetrahydro-2,6-dioxo-9H-purin-8-yl)cinnamic acid nonaethylene glycol methyl ether ester in a Rodent Model of Zymosan-Induced Hyperalgesia […]
The descending colon and rectum were distended by pressure-controlled inflation of a 7-8-cm-long flexible latex balloon tied around a flexible tube. […] Intracolonic pressure was continuously monitored by the aid of a pressure control device. Response was, quantified as the visceromotor response (VMR), a contraction of the abdominal and hindlimb musculature. EMG activity produced by contraction of the external oblique musculature was quantified using Spike2 software (Cambridge Electronic Designs). Each distension trial lasted 60 seconds, and EMG activity was quantitated in 1-second bins for 20 seconds before distension (baseline), during distention, and 20 seconds after distention. […]

COCCOCCOCCOCCOCCOCCOCCOCCOCCOC(=O)/C=C/c1ccc(-c2nc3c(=O)n(CC4CCCCC4)c(=O)n(CC4CCCCC4)c3[nH]2)cc1 [(E)-4-(1,3-bis(cyclohexylmethyl)-1,2,3,6-tetrahydro-2,6-dioxo-9H-purin-8-yl)cinnamic acid nonaethylene glycol methyl ether ester]
response to colorectal distention (CRD), visceromotor response (12.5 mg/kg oral gavage): decreased the response to colorectal distention down to baseline levels | response to colorectal distention (CRD), visceromotor response (25 mg/kg oral gavage): decreased the response to colorectal distention down to baseline levels
